# Source: patent US11020360B2, “Methods, compounds, compositions and vehicles for delivering 3-amino-1-propanesulfonic acid” (Bellus Health, Inc., priority 2006, dated 2021)
# How the values were obtained:
# [1] = Metabolic profiling of 14C-3APS in rats; type: in vivo, male Sprague-Dawley rats
# Procedure: Three single dose studies were conducted in mice, rats and dogs to determine the metabolic profile of ^14C-3APS in plasma, urine and feces. In the first study, twenty-seven male CD-1 mice received a single dose of 100 mg/kg (20 μCi/animal) of ^14C-3APS by oral gavage. Blood samples (3 animals/time point) were collected for 12 hr following drug administration while urine and feces (3 animals/time point) samples were collected for 96 hr. In the second study, eight male Sprague-Dawley rats received a single dose of 100 mg/kg (50 μCi/animal) of ^14C-3APS by oral gavage while in the third study, three male Beagle dogs received a single dose of 100 mg/kg (30 μCi/kg) of ^14C-3APS by oral gavage. For the rat and dog studies, blood samples were collected for 24 hr following drug administration while urine and feces samples were collected for 72 hr. All samples were analyzed for total radioactivity using appropriate sample preparation procedures and scintillation counting. Plasma and urine samples were also analyzed for 3APS and 3APS metabolites (2-carboxyethanesulfonic acid, 3-hydroxy-1-propanesulfonic acid and 3-acetylamino-1-propanesulfonic acid) concentrations using qualified HPLC and MS/MS methods.
# [2] = test system: organotypic hippocampal slice culture; test: In vitro metabolism of 3APS in organotypic hippocampal slice culture; type: in vitro ADME; settings: 3-day incubation in the culture media
# Procedure: In another in vitro model employing organotypic hippocampal slice culture, the conversion of 3APS to 2-carboxyethanesulfonic acid was time-dependent. More than 60% of 3APS was converted to 2-carboxyethanesulfonic acid after 3-day incubation in the culture media. 2-carboxyethanesulfonic acid was also detected after incubation of 3APS in human hepatocyte (HepG2) culture media.
# [3] = Rat plasma, analyte after single oral 100 mg/kg 14C-3APS
# [4] = male, Sprague-Dawley, rat, plasma, po, 100 mg/kg, Rat plasma, analyte after single oral 100 mg/kg 14C-3APS
compound,measurement,setting,value
"NCCCS(=O)(=O)O [Compound 3APS, 3-amino-1-propanesulfonic acid]",AUC0-τ,[1]; [3],26.7 µmol·min/mL
same,AUC∞,[1]; [3],27.6 µmol·min/mL
same,T1/2,"[1]; Rat plasma, analyte after single oral 100 mg/kg 14C-3APS, 100 mg/kg",6.43 h
same,"% of Total Radioactivity, Urine","[1]; Rat, amount excreted, single oral 100 mg/kg 14C-3APS",59%
same,Tmax,[1]; [4],~0.5 h
same,half-life,[1]; [4],~6 h
same,Cmax,"[1]; male, Sprague-Dawley, Rat plasma, analyte (3APS or metabolite) after single oral 100 mg/kg 14C-3APS",218 µM
same,3APS converted to 2-carboxyethanesulfonic acid,[2],More than 60%
